US20250230159A1, “FUSED HETEROCYCLIC COMPOUNDS AS MODULATORS OF RAS SIGNALLING” (Shenzhen Ionova Life Science Co., Ltd., priority 2022, published 2025)
pIC50: −log10 of the molar value. Like-named read-outs stand apart in the source and are kept apart here.

Experiments:
[1] = molecular target: KRAS-G12C/SOS1 interaction (Homo sapiens (Human), UniProt Q07889); assay: Protein-Protein Interaction (PPI) assay, SOS1-KRAS binding assay kit (HTRF)
Procedure: This Example illustrates that exemplary compounds of the present invention blockade the interaction of SOS1 to KRAS protein.
The ability of a compound of Formula (I) to block the interaction of SOS1 to KRAS was measured using a SOS1-KRAS binding assay kit (CAT #63ADK000CB16PEG, Cisbio). Utilizing HTRF (Homogeneous Time-resolved Fluorescence) technology, the assay enables simple and rapid characterization of compound and antibody blockers in a high throughput format. The interaction between Tag1-SOS1 and Tag2-KRAS-G12C is detected by using anti-Tag1-Terbium antibody (HTRF donor) and anti-Tag2-XL665 antibody (HTRF acceptor). When the donor and acceptor antibodies are brought into close proximity due to SOS1 and KRAS-G12C binding, excitation of the donor antibody triggers fluorescent resonance energy transfer (FRET) towards the acceptor antibody, which in turn emits specifically at 665 nm. This specific signal is directly proportional to the extent of KRAS-G12C/SOS1 interaction.
The assay was carried according to the manufacturer's instructions. Compounds at an initial concentration of 10 mM in DMSO were first serially diluted on a 384-well plate using assay buffer at a ratio of 1:3 for a total of 9 concentrations with each of a volume of 20 μL. Blank buffer was included as the negative control. The final compound solution was in the buffer solution with 1% DMSO. Then, in each well of a 384-well plate, a solution of 2 μL compound solution, 4 μL tagged SOS1 and KRAS (G12C) protein stocks, respectively, and 10 μM GTP was incubated for 15 min. 10 μL mixture of […] antibody and anti-Tag1-Terbium antibody was introduced to each individual well. After 2 hours incubation at room temperature, fluorescence readout was measured with a Pelkin Elmer multiple plate reader VICTOR Nivo.
Excitation was from over a range of 245-395 nm, and emission from the donor (emission 1) was detected at […] and emission from the acceptor (emission 2) was detected at (606.5-623.5) nm. The HTRF ratio was calculated using the formula: (emission 1 @665 nm/emission 2 @620 nm)×10000. Thus, compounds blocking KRAS-G12C/SOS1 interaction will cause a reduction in HTRF signal ratio. The IC50 values were then calculated with the Graph pad Prism software.

pERK in Hela cells = assay: Phospho-ERK (p-ERK) assay in Hela cells; format: cell-based; settings: Table 1, 1 hour with compound, β-actin normalized
Procedure: This Example illustrates that exemplary compounds of the present invention prevent KRas-mediated GTP nucleotide exchange mediated by SOS1 to inhibit KRas activity, thereby inhibiting the generation of the downstream effector pERK.
Hela cells (23,000/w) were seeded in a black clear flat bottom 96-well cell culture plate (Corning, #3904) and incubated at 37° C. overnight. At day 2, cells were dosed with compounds of Formula (I) with a 10 μM starting concentration and serially diluted 3× for a total of 9 concentrations. The cells were incubated for 1 hour with the compounds solubilized in DMSO at 37° C. Cells were immediately fixed by adding 100 μL of 8% formaldehyde to all wells in a fume hood and the plates were incubated for 1 hr at room temperature. The formaldehyde was discarded from the plates and washed 5 times and each time for 5 min with 200 μL of Triton Washing Solution (0.1% Triton in PBS) each time to permeabilize the cells. Cells were then blocked with 150 μL of Odyssey blocking buffer (LI-COR Biosciences #927-50010) at room temperature on a shaker. The blocking buffer was discarded and 50 μL of primary antibodies pERK (cell signaling Technology #4370; Rabbit, 1:500) and β-actin (AF5001; Mouse, 1:2000) diluted in Odyssey blocking buffer was added. The plates were incubated overnight at 4° C. on a shaker.
On day 3, the primary antibody solution was removed. Each plate was washed 5× times with 200 μL of 1×PBST (PBS+0.1% Tween 20) and incubated with 50 μL of secondary antibodies: Anti-Rabbit (LI-COR Biosciences #926-32211) and Anti-Mouse (LI-COR Biosciences #68070) at 1:1000 dilution in Odyssey blocking buffer at room temperature on a shaker for 1 hour (protected from light). The secondary antibody solution as removed and each plate was washed with PBST 5× times. Any liquid remaining was discarded and the plate was imaged using the Licor Odyssey machine according to the manufacturer's instruction, using a set focus length at 3.5 mm and both 800 nm and 700 nm filters. The 3-actin normalized scan values for each well were divided by the average of vehicle wells to get the % of p-ERK inhibition. The IC50 values were then calculated with the Graph pad Prism software. In general, p-ERK IC50 data are in line with the PPI IC50 data.

Chain of KRAS-G12C/SOS1 interaction (Q07889 whole entry, stated change not applied): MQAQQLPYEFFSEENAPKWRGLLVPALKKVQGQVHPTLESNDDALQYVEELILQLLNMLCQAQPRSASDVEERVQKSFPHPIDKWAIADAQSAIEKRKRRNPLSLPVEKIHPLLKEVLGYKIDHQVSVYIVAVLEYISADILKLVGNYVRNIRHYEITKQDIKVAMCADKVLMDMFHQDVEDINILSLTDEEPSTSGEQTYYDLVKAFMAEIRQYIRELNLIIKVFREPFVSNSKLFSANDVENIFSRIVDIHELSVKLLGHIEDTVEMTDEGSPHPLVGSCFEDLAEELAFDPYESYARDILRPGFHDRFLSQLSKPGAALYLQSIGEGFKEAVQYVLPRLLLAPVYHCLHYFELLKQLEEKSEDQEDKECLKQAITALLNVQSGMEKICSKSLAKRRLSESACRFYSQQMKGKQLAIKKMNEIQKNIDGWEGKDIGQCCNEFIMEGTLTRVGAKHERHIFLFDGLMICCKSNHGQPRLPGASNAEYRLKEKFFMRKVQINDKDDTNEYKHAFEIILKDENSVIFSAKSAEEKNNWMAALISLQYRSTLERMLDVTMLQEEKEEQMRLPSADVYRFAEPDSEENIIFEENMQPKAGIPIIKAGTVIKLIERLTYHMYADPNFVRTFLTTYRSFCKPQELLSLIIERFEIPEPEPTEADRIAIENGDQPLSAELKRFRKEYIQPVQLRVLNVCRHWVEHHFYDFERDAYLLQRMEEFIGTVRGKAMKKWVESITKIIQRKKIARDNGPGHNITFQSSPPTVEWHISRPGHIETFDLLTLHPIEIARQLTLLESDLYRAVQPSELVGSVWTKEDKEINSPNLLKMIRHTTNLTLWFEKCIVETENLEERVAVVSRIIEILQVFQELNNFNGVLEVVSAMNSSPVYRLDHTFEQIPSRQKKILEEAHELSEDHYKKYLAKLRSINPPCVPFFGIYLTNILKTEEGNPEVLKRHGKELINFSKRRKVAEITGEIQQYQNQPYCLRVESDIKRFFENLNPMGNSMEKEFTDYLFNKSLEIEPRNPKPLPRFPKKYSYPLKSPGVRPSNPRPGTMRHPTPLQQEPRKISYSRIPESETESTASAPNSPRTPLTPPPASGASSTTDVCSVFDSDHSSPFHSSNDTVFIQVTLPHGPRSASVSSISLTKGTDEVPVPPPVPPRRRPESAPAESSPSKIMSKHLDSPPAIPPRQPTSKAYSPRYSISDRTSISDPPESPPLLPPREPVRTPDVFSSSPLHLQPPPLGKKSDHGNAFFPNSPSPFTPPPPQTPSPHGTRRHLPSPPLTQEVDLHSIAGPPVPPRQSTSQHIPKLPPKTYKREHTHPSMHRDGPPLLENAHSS

| SMILES | pIC50 ([1]; read-out: PPI Assay IC50) | pIC50 (pERK in Hela cells; Homo sapiens) | pIC50 ([1]; Table 1 (PPI IC50 < 100 nM), Tag1-SOS1 / Tag2-KRAS-G12C, HTRF, 10 μM GTP, read-out: PPI Assay IC50) | pIC50 (pERK in Hela cells) | pIC50 [1] |
| --- | --- | --- | --- | --- | --- |
| COC1(c2cc3c(N[C@H](C)c4cccc(C(F)F)c4F)ncnc3n3cnnc23)CCS(=O)(=O)CC1 [Example 121] | > 7.00 | > 7.00 |  |  |  |
| CC(=O)N1CC=C(c2cc3c(N[C@H](C)c4cccc(C(F)F)c4F)nc(C)nc3n3nnnc23)CC1 [Example 105] | > 7.00 | > 7.00 |  |  |  |
| C[C@@H](Nc1ncnc2c1cc(N1CCOCC1)c1nnnn12)c1cccc(C(F)F)c1F [Example 98] | > 7.00 | > 7.00 |  |  |  |
| COC1(c2cc3c(N[C@H](C)c4cc(N)cc(C(F)(F)F)c4)ncnc3n3cnnc23)CCN(C(C)=O)CC1 [Example 122] | > 7.00 | > 7.00 |  |  |  |
| Cc1nc(N[C@H](C)c2cccc(C(F)F)c2F)c2cc(C(=O)N3CCCC34CCOC4)c3ncnn3c2n1 (stereo partly shown) [Example 31] | > 7.00 | < 7.00 |  |  |  |
| Cc1nc(N[C@H](C)c2cccc(C(F)F)c2F)c2cc(C3=CCS(=O)(=O)CC3)c3nncn3c2n1 [Example 151, (R)-4-(4-((1-(3-(difluoromethyl)-2-fluorophenyl)ethyl)amino)-2-methyl-[1,2,4]triazolo[4′,3′:1,6]pyrido[2,3-d]pyrimidin-6-yl)-3,6-dihydro-2H-thiopyran 1,1-dioxide] | > 7.00 | < 7.00 |  |  |  |
| CC(=O)N1CCC(F)(c2cc3c(N[C@H](C)c4cccc(C(F)F)c4F)nc(C)nc3n3cnnc23)C1 (stereo partly shown) [Example 115] | > 7.00 | < 7.00 |  |  |  |
| COC1(c2cc3c(N[C@H](C)c4cccc(C(F)F)c4F)nc(C)nc3n3cnnc23)CCN(C(C)=O)CC1 [Example 118, (R)-1-(4-(4-((1-(3-(difluoromethyl)-2-fluorophenyl)ethyl)amino)-2-methyl-[1,2,4]triazolo[4′,3′:1,6]pyrido[2,3-d]pyrimidin-6-yl)-4-methoxypiperidin-1-yl)ethan-1-one] | > 7.00 | > 7.00 |  |  |  |
| CC(=O)N1CC=C(c2cc3c(N[C@H](C)c4cccc(C(F)F)c4F)ncnc3n3cnnc23)CC1 [Example 101] | > 7.00 | > 7.00 |  |  |  |
| Cc1nc2c(N3CCOC4(CC4)C3=O)cc3c(N[C@H](C)c4cccc(C(F)F)c4F)ncnc3n2n1 [Example 156] | > 7.00 | > 7.00 |  |  |  |
| C[C@@H](Nc1ncnc2c1cc(N1CCOCC1=O)c1nncn12)c1cc(N)cc(C(F)(F)F)c1 [Example 86] | > 7.00 | > 7.00 |  |  |  |
| CC(=O)N1CCC(C)(c2cc3c(N[C@H](C)c4cccc(C(F)F)c4F)nc(C)nc3n3cnnc23)CC1 [Example 127, (R)-1-(4-(4-((1-(3-(difluoromethyl)-2-fluorophenyl)ethyl)amino)-2-methyl-[1,2,4]triazolo[4′,3′:1,6]pyrido[2,3-d]pyrimidin-6-yl)-4-methylpiperidin-1-yl)ethan-1-one] | > 7.00 | > 7.00 |  |  |  |
| Cc1nc2c(C3(C#N)CC3)cc3c(N[C@H](C)c4cccc(C(F)F)c4F)ncnc3n2n1 [Example 170, (R)-1-(6-((1-(3-(difluoromethyl)-2-fluorophenyl)ethyl)amino)-2-methyl-[1,2,4]triazolo[1′,5′:1,6]pyrido[2,3-d]pyrimidin-4-yl)cyclopropane-1-carbonitrile] | > 7.00 | > 7.00 |  |  |  |
| CC(=O)N1CCC(O)(c2cc3c(N[C@H](C)c4cccc(C(F)F)c4F)ncnc3n3c(C(F)(F)F)nnc23)CC1 [Example 135, (R)-1-(4-(4-((1-(3-(difluoromethyl)-2-fluorophenyl)ethyl)amino)-9-(trifluoromethyl)-[1,2,4]triazolo[4′,3′:1,6]pyrido[2,3-d]pyrimidin-6-yl)-4-hydroxypiperidin-1-yl)ethan-1-one] | > 7.00 | < 7.00 |  |  |  |
| C[C@@H](Nc1ncnc2c1cc(N1CCOCC1=O)c1nncn12)c1cccc(C(F)F)c1F [Example 162] | > 7.00 | > 7.00 |  |  |  |
| Cc1nc(N[C@H](C)c2cc(N)cc(C(F)(F)F)c2)c2cc(C(=O)N3CC4(COC4)C3)c3ncnn3c2n1 [Example 6] | > 7.00 | > 7.00 |  |  |  |
| Cc1nc(N[C@H](C)c2cccc(C(F)(F)F)c2F)c2cc(C(=O)N3CC4(COC4)C3)c3ncnn3c2n1 [Example 39] | > 7.00 | < 7.00 |  |  |  |

| SMILES | pIC50 ([1]; read-out: PPI Assay IC50) | pIC50 (pERK in Hela cells; Homo sapiens) | pIC50 ([1]; Table 1 (PPI IC50 < 100 nM), Tag1-SOS1 / Tag2-KRAS-G12C, HTRF, 10 μM GTP, read-out: PPI Assay IC50) | pIC50 (pERK in Hela cells) | pIC50 [1] |
| --- | --- | --- | --- | --- | --- |
| Cc1nc(N[C@H](C)c2cc(N)cc(C(F)(F)F)c2)c2cc(C(=O)N3CCN(C)CC3)c3ncnn3c2n1 [Example 3] | > 7.00 | > 7.00 |  |  |  |
| CC(=O)N1CCN(C(=O)c2cc3c(N[C@H](C)c4cccc(C(F)F)c4F)nc(C)nc3n3ncnc23)CC1 [Example 20] | > 7.00 | < 7.00 |  |  |  |
| CC(=O)N1CC=C(c2cc3c(N[C@H](C)c4cccc(C(F)F)c4F)ncnc3n3nnnc23)CC1 [Example 106] | > 7.00 | > 7.00 |  |  |  |
| Cc1nc(N[C@H](C)c2cccc(C(F)F)c2F)c2cc(C3CC[S+]([O-])CC3)c3nncn3c2n1 (stereo partly shown) [Example 150] | > 7.00 | < 7.00 |  |  |  |
| COCC(=O)N1CCC(c2cc3c(N[C@H](C)c4cccc(C(F)F)c4F)ncnc3n3nnnc23)CC1 [Example 148] | > 7.00 | < 7.00 |  |  |  |
| C[C@@H](Nc1ncnc2c1cc(N1CCOCC1)c1nncn12)c1cccc(C(F)F)c1F [Example 79] | > 7.00 | > 7.00 |  |  |  |
| C[C@@H](Nc1ncnc2c1cc(C(=O)N1C3CC1CN(C)C3)c1ncnn12)c1cccc(C(F)F)c1F [Example 47] | > 7.00 | < 7.00 |  |  |  |
| Cc1nc(N[C@H](C)c2cccc(C(F)F)c2F)c2cc(C(=O)N3CC4(COC4)C3)c3nnnn3c2n1 [Example 62] |  |  | > 7.00 | < 7.00 |  |
| Cc1nc(N[C@H](C)c2cccc(C(F)F)c2F)c2cc(N3CCS(=O)(=O)CC3)c3nncn3c2n1 [Example 76] | > 7.00 | < 7.00 |  |  |  |
| Cc1nc(N[C@H](C)c2cccc(C(F)F)c2F)c2cc(C(=O)N3CC4CC(C3)O4)c3ncnn3c2n1 [Example 35] | > 7.00 | < 7.00 |  |  |  |
| Cc1nc(N[C@H](C)c2cccc(C(F)F)c2F)c2cc(C(=O)N3CCCC34CCOC4)c3nncn3c2n1 (stereo partly shown) [Example 52] | > 7.00 |  |  |  |  |
| C[C@@H](Nc1ncnc2c1cc(N1CC(C#N)C1)c1nncn12)c1cccc(C(F)F)c1F [Example 81] |  |  |  |  | < 7.00 |
| Cc1nc(N[C@H](C)c2cccc(C(F)F)c2F)c2cc(C(=O)N3CCOC[C@H]3C)c3ncnn3c2n1 [Example 15] |  |  |  |  | < 7.00 |
| Cc1nc(N[C@H](C)c2cccc(C(F)F)c2F)c2cc(N3CCC(F)(F)CC3)c3nncn3c2n1 [Example 75] |  |  |  |  | < 7.00 |
| Cc1nc(N[C@H](C)c2cccc(C(F)F)c2F)c2cc(C(=O)N(C)C3COC3)c3ncnn3c2n1 [Example 8] |  |  |  |  | < 7.00 |
| C[C@@H](Nc1ncnc2c1cc(N1C3COCC1C3)c1nncn12)c1cccc(C(F)F)c1F [Example 80] |  |  |  |  | < 7.00 |
| CNC(=O)c1cc2c(N[C@H](C)c3cccc(C(F)F)c3F)nc(C)nc2n2ncnc12 [Example 9] |  |  |  |  | < 7.00 |
